ChEMBL document CHEMBL3774345, “Synthesis of new diarylamides with pyrimidinyl pyridine scaffold and evaluation of their anti-proliferative effect on cancer cell lines” (Bioorg Med Chem Lett, 2016)

Key:
[1] = Cytotoxicity against human BT549 cells assessed as cell growth at 10^-8 M after 24 hrs by SRB assay; type: functional; conditions: BT-549, 24 h, read-out: Activity
CCRF-CEM [2] = assay: Cytotoxicity against human CCRF-CEM cells assessed as cell growth at 10^-7 M after 24 hrs by SRB assay; type: functional; conditions: read-out: Activity
[3] = Cytotoxicity against human COLO205 cells assessed as cell growth at 10^-7 M after 24 hrs by SRB assay; type: functional; conditions: COLO 205, 24 h, read-out: Activity
M14 = assay: Cytotoxicity against human M14 cells assessed as cell growth at 10^-7 M after 24 hrs by SRB assay; type: functional; conditions: M14, 24 h, read-out: Activity
MDA-MB-435 [4] = assay: Cytotoxicity against human MDA-MB-435 cells assessed as cell growth at 10^-7 M after 24 hrs by SRB assay; type: functional; conditions: MDA-MB-435, 24 h, read-out: Activity
SK-MEL-2 = assay: Cytotoxicity against human SK-MEL-2 cells assessed as cell growth at 10^-7 M after 24 hrs by SRB assay; type: functional; conditions: SK-MEL-2, 24 h, read-out: Activity
[5] = Cytotoxicity against human UACC62 cells assessed as cell growth at 10^-7 M after 24 hrs by SRB assay; type: functional; conditions: UACC-62, 24 h, read-out: Activity
[6] = Cytotoxicity against human SKOV3 cells assessed as cell growth at 10^-7 M after 24 hrs by SRB assay; type: functional; conditions: SK-OV-3, 24 h, read-out: Activity
HT-29 = assay: Cytotoxicity against human HT-29 cells after 24 hrs by SRB assay; type: functional; conditions: HT-29, 24 h
[7] = Cytotoxicity against human SF295 cells after 24 hrs by SRB assay; type: functional, cell-based; conditions: SF-295, 24 h
[8] = Cytotoxicity against human SF539 cells after 24 hrs by SRB assay; type: functional, cell-based; conditions: SF-539, 24 h
[9] = Cytotoxicity against human SNB75 cells after 24 hrs by SRB assay; type: functional, cell-based; conditions: SNB-75, 24 h
[10] = Cytotoxicity against human LOXIMVI cells after 24 hrs by SRB assay; type: functional, cell-based; conditions: LOX IMVI
[11] = Cytotoxicity against human SNB19 cells assessed as cell growth at 10^-4 M after 24 hrs by SRB assay; type: functional; conditions: SNB-19, 24 h, read-out: Activity
[12] = Cytotoxicity against human TK10 cells assessed as cell growth at 10^-7 M after 24 hrs by SRB assay; type: functional; conditions: TK-10, 24 h, read-out: Activity
[13] = Cytotoxicity against human Hs 578T cells assessed as cell growth at 10^-7 M after 24 hrs by SRB assay; type: functional; conditions: read-out: Activity
[14] = Cytotoxicity against human HOP92 cells assessed as cell growth at 10^-6 M after 24 hrs by SRB assay; type: functional; conditions: HOP-92, 24 h, read-out: Activity
SK-MEL-5 = assay: Cytotoxicity against human SK-MEL-5 cells assessed as cell growth at 10^-4 M after 24 hrs by SRB assay; type: functional; conditions: SK-MEL-5, 24 h, read-out: Activity
[15] = Cytotoxicity against human UACC62 cells assessed as cell growth at 10^-4 M after 24 hrs by SRB assay; type: functional; conditions: UACC-62, 24 h, read-out: Activity
ACHN = assay: Cytotoxicity against human ACHN cells assessed as cell growth at 10^-4 M after 24 hrs by SRB assay; type: functional; conditions: read-out: Activity
NCI-H23 [16] = assay: Cytotoxicity against human NCI-H23 cells assessed as cell growth at 10^-6 M after 24 hrs by SRB assay; type: functional; conditions: NCI-H23, 24 h, read-out: Activity
[17] = Cytotoxicity against human OVCAR4 cells assessed as cell growth at 10^-6 M after 24 hrs by SRB assay; type: functional; conditions: OVCAR-4, 24 h, read-out: Activity
[18] = Cytotoxicity against human NCI-ADR-RES cells assessed as cell growth at 10^-6 M after 24 hrs by SRB assay; type: functional; conditions: read-out: Activity
NCI-H23 [19] = assay: Cytotoxicity against human NCI-H23 cells assessed as cell growth at 10^-8 M after 24 hrs by SRB assay; type: functional; conditions: NCI-H23, 24 h, read-out: Activity
Malme-3M [20] = assay: Cytotoxicity against human MALME-3M cells assessed as cell growth at 10^-8 M after 24 hrs by SRB assay; type: functional; conditions: read-out: Activity
MDA-MB-435 [21] = assay: Cytotoxicity against human MDA-MB-435 cells assessed as cell growth at 10^-8 M after 24 hrs by SRB assay; type: functional; conditions: MDA-MB-435, 24 h, read-out: Activity
CCRF-CEM [22] = assay: Cytotoxicity against human CCRF-CEM cells assessed as cell growth at 10^-5 M after 24 hrs by SRB assay; type: functional; conditions: read-out: Activity
[23] = Cytotoxicity against human RPMI8226 cells assessed as cell growth at 10^-5 M after 24 hrs by SRB assay; type: functional; conditions: RPMI-8226, 24 h, read-out: Activity
EKVX = assay: Cytotoxicity against human EKVX cells assessed as cell growth at 10^-5 M after 24 hrs by SRB assay; type: functional; conditions: read-out: Activity
[24] = Cytotoxicity against human SNB19 cells assessed as cell growth at 10^-5 M after 24 hrs by SRB assay; type: functional; conditions: SNB-19, 24 h, read-out: Activity
U-251 = assay: Cytotoxicity against human U251 cells assessed as cell growth at 10^-5 M after 24 hrs by SRB assay; type: functional; conditions: U-251, 24 h, read-out: Activity
Malme-3M [25] = assay: Cytotoxicity against human MALME-3M cells assessed as cell growth at 10^-5 M after 24 hrs by SRB assay; type: functional; conditions: read-out: Activity
[26] = Cytotoxicity against human UACC62 cells assessed as cell growth at 10^-5 M after 24 hrs by SRB assay; type: functional; conditions: UACC-62, 24 h, read-out: Activity
[27] = Cytotoxicity against human OVCAR4 cells assessed as cell growth at 10^-5 M after 24 hrs by SRB assay; type: functional; conditions: OVCAR-4, 24 h, read-out: Activity
[28] = Cytotoxicity against human OVCAR8 cells assessed as cell growth at 10^-5 M after 24 hrs by SRB assay; type: functional; conditions: OVCAR-8, 24 h, read-out: Activity
A498 = assay: Cytotoxicity against human A498 cells assessed as cell growth at 10^-5 M after 24 hrs by SRB assay; type: functional; conditions: A498, 24 h, read-out: Activity
T47D = assay: Cytotoxicity against human T47D cells assessed as cell growth at 10^-5 M after 24 hrs by SRB assay; type: functional; conditions: read-out: Activity
[29] = read-out: LC50 (the source's name)
[30] = read-out: pLC50 (the source's name) (converted)

O=C(Nc1cc(-c2cccnc2)nc(NCCCN2CCOCC2)n1)c1cc(Br)cc(C(F)(F)F)c1
growth at 0.01 µM [1]: 95%
growth at 0.1 µM (CCRF-CEM [2]): 105%
growth at 0.1 µM [3]: 93%
growth at 0.1 µM (M14): 95%
growth at 0.1 µM (MDA-MB-435 [4]): 92%
growth at 0.1 µM (SK-MEL-2): 95%
growth at 0.1 µM [5]: 90%
growth at 0.1 µM [6]: 93%
GI50 (HT-29; read-out: GI50): 2.12 µM
CC50 (HT-29; [29]): 16.1 µM
TGI (HT-29; read-out: TGI): 4.95 µM
GI50 (HT-29; read-out: pGI50 (converted)): 2.14 µM
CC50 (HT-29; [30]): 16.2 µM
TGI (HT-29; read-out: pTGI (converted)): 4.9 µM
GI50 ([7]; read-out: GI50): 1.94 µM
CC50 [7, 29]: 7.97 µM
TGI ([7]; read-out: TGI): 3.93 µM
GI50 ([7]; read-out: pGI50 (converted)): 1.95 µM
CC50 [7, 30]: 7.94 µM
TGI ([7]; read-out: pTGI (converted)): 3.89 µM
GI50 ([8]; read-out: GI50): 1.67 µM
CC50 [8, 29]: 7.2 µM
TGI ([8]; read-out: TGI): 3.47 µM
GI50 ([8]; read-out: pGI50 (converted)): 1.66 µM
CC50 [8, 30]: 7.24 µM
TGI ([8]; read-out: pTGI (converted)): 3.47 µM
IC50 [9]: 1.52 µM
GI50 ([9]; read-out: GI50): 1.52 µM
CC50 [9, 29]: 8.46 µM
TGI ([9]; read-out: TGI): 3.59 µM
GI50 ([9]; read-out: pGI50 (converted)): 1.51 µM
CC50 [9, 30]: 8.51 µM
TGI ([9]; read-out: pTGI (converted)): 3.55 µM
IC50 [10]: 1.62 µM
GI50 ([10]; read-out: GI50): 1.62 µM
CC50 [10, 29]: 5.79 µM
TGI ([10]; read-out: TGI): 3.06 µM
GI50 ([10]; read-out: pGI50 (converted)): 1.62 µM
CC50 [10, 30]: 5.75 µM
TGI ([10]; read-out: pTGI (converted)): 3.09 µM
growth at 100 µM [11]: -84%
growth at 0.1 µM [12]: 91%
growth at 0.1 µM [13]: 94%
growth at 1 µM [14]: 75%
growth at 100 µM (SK-MEL-5): -100%
growth at 100 µM [15]: -90%
growth at 100 µM (ACHN): -79%
growth at 1 µM (NCI-H23 [16]): 89%
growth at 1 µM [17]: 84%
growth at 1 µM [18]: 88%
growth at 0.01 µM (NCI-H23 [19]): 98%
growth at 0.01 µM (Malme-3M [20]): 99%
growth at 0.01 µM (MDA-MB-435 [21]): 96%
growth at 10 µM (CCRF-CEM [22]): 6%
growth at 10 µM [23]: -1%
growth at 10 µM (EKVX): 17%
growth at 10 µM [24]: -33%
growth at 10 µM (U-251): -57%
growth at 10 µM (Malme-3M [25]): -72%
growth at 10 µM [26]: -50%
growth at 10 µM [27]: 18%
growth at 10 µM [28]: -7%
growth at 10 µM (A498): 13%
growth at 10 µM (T47D): 21%
